The values below are quoted from earlier work in PMC11592675, “Förster Resonance Energy Transfer Measurements in Living Bacteria for Interaction Studies of BamA with BamD and Inhibitor Identification” (Cells, 2024).

In data set [1] the test system is clinical isolates. The conditions noted are these: several clinical isolates; cited from earlier work. The text has this:
Resistance against known antibiotics is progressively spreading. Therefore, new antibacterial entities are urgently needed. […] The β-barrel assembly ...

Data set [2] has as its system BamA. The conditions noted are these: cited from earlier work. The source says: Resistance against known antibiotics is progressively spreading. Therefore, new antibacterial entities are urgently needed. According to the WHO, new antibiotics against gram-negative bacteria are in particular need. Common mechanisms of antibiotic resistance in gram-negative bacteria include changes in membrane and cell-wall permeability, biofilm formation, the production of efflux pumps and beta-lactamases, as well as mutation of typical targets. […] The β-barrel assembly ...

Consider darobactin, for which the antimicrobial activity result in data set [1] is “antimicrobial activity against several clinical isolates”. The “effect on insertion of BamA client proteins into the outer membrane” value in data set [2] is recorded as “prevents the insertion of BamA client proteins into the outer membrane”.
